These results are taken from patent publication US10793580B2, “Substituted pyrazoloazepin-8-ones and their use as phosphodiesterase inhibitors” (LEO Pharma A/S, priority 2016, dated 2020).

A value given as a limit tells only on which side of the number the result lay.

Sequence of human PDE4D catalytic domain (Q08499 380-740): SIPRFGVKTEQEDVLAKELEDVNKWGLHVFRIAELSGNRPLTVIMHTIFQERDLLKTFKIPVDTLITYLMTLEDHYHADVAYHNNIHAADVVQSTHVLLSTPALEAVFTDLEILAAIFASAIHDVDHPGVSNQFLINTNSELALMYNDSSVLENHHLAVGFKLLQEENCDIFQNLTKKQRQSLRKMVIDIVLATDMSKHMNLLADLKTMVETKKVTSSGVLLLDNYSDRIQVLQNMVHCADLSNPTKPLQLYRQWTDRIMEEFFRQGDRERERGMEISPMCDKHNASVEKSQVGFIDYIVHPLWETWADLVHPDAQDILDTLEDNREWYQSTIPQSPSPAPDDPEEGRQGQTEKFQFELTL

This assay has as its target human PDE4D catalytic domain (Homo sapiens (Human), UniProt Q08499). In words: PDE4 Assay (TR-FRET, FAM-cAMP cleavage). It is filed as biochemical. As to conditions: human PDE4D catalytic domain (UniProt Q08499 [S380-L740]); 50% inhibition of substrate cleavage; read-out: PDE4 IC50 range. The protocol: The human PDE4D catalytic domain (UniProt no. Q08499 [S380-L740]) was incubated with a mixture of non-labelled cAMP (cyclic adenosine monophosphate) and fluorescein amidite (FAM) conjugated cAMP and titrated test or reference Compound. Following brief incubation the enzymatic reaction was stopped by addition of binding buffer containing nanoparticles with immobilized trivalent metal ions capable of binding 1) AMP phospho groups and 2) terbium (Tb) donor fluorophores. Subsequent excitation of the Tb donor triggers time-resolved FRET to adjacent FAM acceptor molecules resulting in light emission. In the presence of a PDE4 inhibitor, AMP generation was reduced resulting in a lower fluorescence signal. The cAMP phosphodiester is not bound by the detection system.
The results were calculated as the molar concentrations resulting in 50% inhibition of the substrate cleavage compared to controls samples, and are expressed as a range of IC50 (nM).
For orientation: TR-FRET usually uses a lanthanide donor and a delayed reading to cut background.
The IC50 is the concentration needed to halve the response being measured. On to `CCn1nc(CCCOC(=O)c2cc(Cl)ccc2OC)c2c1C(=O)NCC1(CCOCC1)C2` [Example 60, 3-(1-ethyl-8-oxo-spiro[6,7-dihydro-4H-pyrazolo[3,4-c]azepine-5,4′-tetrahydropyran]-3-yl)propyl 5-chloro-2-methoxy-benzoate], for which the IC50 is under 100 nM. To `CCn1nc(CCCOC(=O)c2ccc(Cl)cc2OC)c2c1C(=O)NCC1(CCOCC1)C2` [Example 61, 3-(1-ethyl-8-oxo-spiro[6,7-dihydro-4H-pyrazolo[3,4-c]azepine-5,4′-tetrahydropyran]-3-yl)propyl 4-chloro-2-methoxy-benzoate] belongs under 100 nM. The value for `CCn1nc(CCCOC(=O)c2ccc(C(F)(F)F)cc2)c2c1C(=O)NCC1(CCOCC1)C2` [Example 62, 3-(1-ethyl-8-oxo-spiro[6,7-dihydro-4H-pyrazolo[3,4-c]azepine-5,4′-tetrahydropyran]-3-yl)propyl 4-(trifluoromethyl)benzoate] was under 100 nM; that for `CCn1nc(CCCOC(=O)c2cccc(S(C)(=O)=O)c2)c2c1C(=O)NCC1(CCOCC1)C2` [Example 63, 3-(1-ethyl-8-oxo-spiro[6,7-dihydro-4H-pyrazolo[3,4-c]azepine-5,4′-tetrahydropyran]-3-yl)propyl 3-methylsulfonylbenzoate] was under 100 nM; that for `CCn1nc(CCCOC(=O)c2ccccc2S(C)(=O)=O)c2c1C(=O)NCC1(CCOCC1)C2` [Example 64, 3-(1-ethyl-8-oxo-spiro[6,7-dihydro-4H-pyrazolo[3,4-c]azepine-5,4′-tetrahydropyran]-3-yl)propyl 2-methylsulfonylbenzoate] was under 100 nM. To `CCn1nc(CCCOC(=O)c2ccc(S(N)(=O)=O)cc2)c2c1C(=O)NCC1(CCOCC1)C2` [Example 65, 3-(1-ethyl-8-oxo-spiro[6,7-dihydro-4H-pyrazolo[3,4-c]azepine-5,4′-tetrahydropyran]-3-yl)propyl 4-sulfamoylbenzoate] belongs under 100 nM; to `CCn1nc(CCCOC(=O)c2cccc(S(N)(=O)=O)c2)c2c1C(=O)NCC1(CCOCC1)C2` [Example 66, 3-(1-ethyl-8-oxo-spiro[6,7-dihydro-4H-pyrazolo[3,4-c]azepine-5,4′-tetrahydropyran]-3-yl)propyl 3-sulfamoylbenzoate], under 100 nM; to `CCn1nc(CCCOC(=O)c2cc(C(F)(F)F)ccc2C)c2c1C(=O)NCC1(CCOCC1)C2` [Example 67, 3-(1-ethyl-8-oxo-spiro[6,7-dihydro-4H-pyrazolo[3,4-c]azepine-5,4′-tetrahydro-pyran]-3-yl)propyl 2-methyl-5-(trifluoromethyl)benzoate], under 100 nM. Consider `CCn1nc(CCCOC(=O)c2cccc(C(F)(F)F)c2C)c2c1C(=O)NCC1(CCOCC1)C2` [Example 68, 3-(1-ethyl-8-oxo-spiro[6,7-dihydro-4H-pyrazolo[3,4-c]azepine-5,4′-tetrahydro-pyran]-3-yl)propyl 2-methyl-3-(trifluoromethyl)benzoate], for which the IC50 is under 100 nM. The value for `CCn1nc(CCCOC(=O)c2ccc(C(F)(F)F)cc2F)c2c1C(=O)NCC1(CCOCC1)C2` [Example 70, 3-(1-ethyl-8-oxo-spiro[6,7-dihydro-4H-pyrazolo[3,4-c]azepine-5,4′-tetrahydro-pyran]-3-yl)propyl 2-fluoro-4-(trifluoromethyl)benzoate] was under 100 nM; that for `CCn1nc(CCCOC(=O)c2ccc(F)cc2C(F)(F)F)c2c1C(=O)NCC1(CCOCC1)C2` [Example 71, 3-(1-ethyl-8-oxo-spiro[6,7-dihydro-4H-pyrazolo[3,4-c]azepine-5,4′-tetrahydro-pyran]-3-yl)propyl 4-fluoro-2-(trifluoromethyl)benzoate] was under 100 nM. The value for `CCn1nc(CCCOC(=O)c2cc(F)cc(C(F)(F)F)c2)c2c1C(=O)NCC1(CCOCC1)C2` [Example 72, 3-(1-ethyl-8-oxo-spiro[6,7-dihydro-4H-pyrazolo[3,4-c]azepine-5,4′-tetrahydro-pyran]-3-yl)propyl 3-fluoro-5-(trifluoromethyl)benzoate] was under 100 nM. To `CCn1nc(CCCOC(=O)c2cc(C(F)(F)F)ccc2F)c2c1C(=O)NCC1(CCOCC1)C2` [Example 73, 3-(1-ethyl-8-oxo-spiro[6,7-dihydro-4H-pyrazolo[3,4-c]azepine-5,4′-tetrahydro-pyran]-3-yl)propyl 2-fluoro-5-(trifluoromethyl)benzoate] belongs under 100 nM; to `CCn1nc(CCCOC(=O)c2cc(F)ccc2C(F)(F)F)c2c1C(=O)NCC1(CCOCC1)C2` [Example 74, 3-(1-ethyl-8-oxo-spiro[6,7-dihydro-4H-pyrazolo[3,4-c]azepine-5,4′-tetrahydro-pyran]-3-yl)propyl 5-fluoro-2-(trifluoromethyl)benzoate], under 100 nM.

Regarding `CCn1nc(CCCOC(=O)c2ccc(C(F)(F)F)c(F)c2)c2c1C(=O)NCC1(CCOCC1)C2` [Example 75, 3-(1-ethyl-8-oxo-spiro[6,7-dihydro-4H-pyrazolo[3,4-c]azepine-5,4′-tetrahydro-pyran]-3-yl)propyl 3-fluoro-4-(trifluoromethyl)benzoate], the IC50 was under 100 nM. As for `CCn1nc(CCCOC(=O)c2cccc(S(=O)(=O)CC)c2)c2c1C(=O)NCC1(CCOCC1)C2` [Example 76, 3-(1-ethyl-8-oxo-spiro[6,7-dihydro-4H-pyrazolo[3,4-c]azepine-5,4′-tetrahydro-pyran]-3-yl)propyl 3-ethylsulfonylbenzoate], the IC50 is under 100 nM. Regarding `CCn1nc(CCCOC(=O)c2ccc(S(=O)(=O)CC)cc2)c2c1C(=O)NCC1(CCOCC1)C2` [Example 77, 3-(1-ethyl-8-oxo-spiro[6,7-dihydro-4H-pyrazolo[3,4-c]azepine-5,4′-tetrahydro-pyran]-3-yl)propyl 4-ethylsulfonylbenzoate], the IC50 is under 100 nM. To `CCn1nc(CCCOC(=O)c2cccc(S(=O)(=O)NC)c2)c2c1C(=O)NCC1(CCOCC1)C2` [Example 78, 3-(1-ethyl-8-oxo-spiro[6,7-dihydro-4H-pyrazolo[3,4-c]azepine-5,4′-tetrahydro-pyran]-3-yl)propyl 3-(methylsulfamoyl)benzoate] belongs under 100 nM. The value for `CCn1nc(CCCOC(=O)c2ccc(OC)c(C(F)(F)F)c2)c2c1C(=O)NCC1(CCOCC1)C2` [Example 79, 3-(1-ethyl-8-oxo-spiro[6,7-dihydro-4H-pyrazolo[3,4-c]azepine-5,4′-tetrahydro-pyran]-3-yl)propyl 4-methoxy-3-(trifluoromethyl)benzoate] was under 100 nM; that for `CCn1nc(CCCOC(=O)c2cc(OC)ccc2C(F)(F)F)c2c1C(=O)NCC1(CCOCC1)C2` [Example 80, 3-(1-ethyl-8-oxo-spiro[6,7-dihydro-4H-pyrazolo[3,4-c]azepine-5,4′-tetrahydro-pyran]-3-yl)propyl 5-methoxy-2-(trifluoromethyl)benzoate] was under 100 nM; that for `CCn1nc(CCCOC(=O)c2ccc(OC)cc2C(F)(F)F)c2c1C(=O)NCC1(CCOCC1)C2` [Example 81, 3-(1-ethyl-8-oxo-spiro[6,7-dihydro-4H-pyrazolo[3,4-c]azepine-5,4′-tetrahydro-pyran]-3-yl)propyl 4-methoxy-2-(trifluoromethyl)benzoate] was under 100 nM. To `CCn1nc(CCCOC(=O)c2cc(OC)cc(C(F)(F)F)c2)c2c1C(=O)NCC1(CCOCC1)C2` [Example 82, 3-(1-ethyl-8-oxo-spiro[6,7-dihydro-4H-pyrazolo[3,4-c]azepine-5,4′-tetrahydropyran]-3-yl)propyl 3-methoxy-5-(trifluoromethyl)benzoate] belongs under 100 nM. For `CCn1nc(CCCOC(=O)c2ccc(C(F)(F)F)c(OC)c2)c2c1C(=O)NCC1(CCOCC1)C2` [Example 83, 3-(1-ethyl-8-oxo-spiro[6,7-dihydro-4H-pyrazolo[3,4-c]azepine-5,4′-tetrahydro-pyran]-3-yl)propyl 3-methoxy-4-(trifluoromethyl)benzoate], the IC50 was under 100 nM. The value for `CCn1nc(CCCOC(=O)c2ccc(Cl)cc2C(F)(F)F)c2c1C(=O)NCC1(CCOCC1)C2` [Example 84, 3-(1-ethyl-8-oxo-spiro[6,7-dihydro-4H-pyrazolo[3,4-c]azepine-5,4′-tetrahydropyran]-3-yl)propyl 4-chloro-2-(trifluoromethyl)benzoate] was under 100 nM; that for `CCn1nc(CCCOC(=O)c2cccc(C(F)(F)F)c2Cl)c2c1C(=O)NCC1(CCOCC1)C2` [Example 85, 3-(1-ethyl-8-oxo-spiro[6,7-dihydro-4H-pyrazolo[3,4-c]azepine-5,4′-tetrahydropyran]-3-yl)propyl 2-chloro-3-(trifluoromethyl)benzoate] was under 100 nM. The value for `CCn1nc(CCCOC(=O)c2ccc(C(F)(F)F)c(Cl)c2)c2c1C(=O)NCC1(CCOCC1)C2` [Example 86, 3-(1-ethyl-8-oxo-spiro[6,7-dihydro-4H-pyrazolo[3,4-c]azepine-5,4′-tetrahydro-pyran]-3-yl)propyl 3-chloro-4-(trifluoromethyl)benzoate] was under 100 nM; that for `CCn1nc(CCCOC(=O)c2cc(Cl)ccc2C(F)(F)F)c2c1C(=O)NCC1(CCOCC1)C2` [Example 87, 3-(1-ethyl-8-oxo-spiro[6,7-dihydro-4H-pyrazolo[3,4-c]azepine-5,4′-tetrahydro-pyran]-3-yl)propyl 5-chloro-2-(trifluoromethyl)benzoate] was under 100 nM. As to `CCn1nc(CCCOC(=O)c2ccc(C(F)(F)F)cc2Cl)c2c1C(=O)NCC1(CCOCC1)C2` [Example 88, 3-(1-ethyl-8-oxo-spiro[6,7-dihydro-4H-pyrazolo[3,4-c]azepine-5,4′-tetrahydro-pyran]-3-yl)propyl 2-chloro-4-(trifluoromethyl)benzoate], the IC50 was under 100 nM.
